According to patent US6521751B1, “Recombinant nucleic acid sequences and methods for determining both genotoxicity and mutagenicity of a sample and the kinetics of the genotoxicity” (Vlaamse Instelling voor Technologisch Onderzoek (VITO), priority 1998, dated 2003):
Like-named read-outs stand apart in the source and are kept apart here.

Legend:
[1] = system: TA 98 and TA104 strains containing pMOL1067 or pMOL1068
[2] = system: E. coli (sfiA-lacZ); settings: cited from earlier work
[3] = system: S. typhimurium; settings: cited from earlier work
[4] = system: TA104 (pMOL890); settings: M9 medium saturated with 0.1% of the PAH, degrading strain, samples every 3 days
[5] = system: TA98 and TA104 strains containing pMOL890, pMOL1067 or pMOL1068; assay: Test with the TA98 and TA104 strains containing pMOL890, pMOL1067 or pMOL1068
[6] = system: novel biosensor systems in E. coli and in S. typhimurium strains; assay: Subject SOS promoter-lux systems (general statements); settings: agents known to give false negative results in the SOS chromotest and the Ames test
[7] = system: S. typhimurium TA104 containing pMOL1067; settings: TA104 pMOL1067
[8] = system: S. typhimurium TA104 containing pMOL1069; settings: TA104 pMOL1069
[9] = system: S. typhimurium TA98 containing pMOL1068; settings: TA98 pMOL1068
[10] = system: S. typhimurium TA104 containing pMOL1068; settings: TA104 pMOL1068
[11] = system: S. typhimurium TA104 containing pMOL890; settings: TA104 pMOL890
[12] = system: S. typhimurium TA98 containing pMOL1067; settings: TA98 pMOL1067
[13] = system: S. typhimurium TA104 containing pMOL1066; settings: TA104 pMOL1066
[14] = system: S. typhimurium TA98 containing pMOL890; settings: TA98 pMOL890
[15] = TA 98 and TA104 strains containing pMOL1067 or pMOL1068

| Structure (SMILES) | SOS (result) [2] | OUTCOME (genotoxicity, final outcome) [1, 15] | SOS (result) ([2]; SOS chromotest, Table 3) | AMES (result) [3] | further results |
| --- | --- | --- | --- | --- | --- |
| c1ccc2ccccc2c1 [Naphtalene] | neg |  |  |  | OUTCOME (genotoxicity, final outcome) [1]: neg |
| COC(=O)N/N=C/c1c[n+]([O-])c2ccccc2[n+]1[O-] [Carbadox] |  | pos | pos |  | AMES (result) ([3]; Ames test, Table 3): pos |
| O=C(N/N=C/c1ccc([N+](=O)[O-])o1)c1ccc(O)cc1 [Nifuroxazide] |  | pos |  |  | AMES (result) ([3]; Ames test, Table 3): pos |
| NN [Hydrazine] |  | pos | pos | pos |  |
| [Cl-].[Cl-].[Zn+2] [ZnCl2] | neg |  |  | neg | OUTCOME (genotoxicity, final outcome) [1]: neg |
| S=C1NCCN1 [Ethylenethiourea] |  |  |  | pos |  |
| c1ccc2c(c1)-c1cccc3cccc-2c13 [Fluoranthene] | pos |  |  | pos | genotoxicity during bacterial degradation of the PAH [4]: an increase of genotoxicity; OUTCOME (genotoxicity, final outcome) [1]: pos |
| CCCCCCCCCCCCOS(=O)(=O)[O-].[Na+] [Sodium Dodecyl Sulphate] |  | neg |  |  | AMES (result) ([3]; Ames test, Table 3): neg |
| ClCC1CO1 (stereo not shown) [Epichlorohydrine] | pos |  |  | pos | OUTCOME (genotoxicity, final outcome) [1]: pos |
| Cl[C@H]1[C@H](Cl)[C@@H](Cl)[C@@H](Cl)[C@H](Cl)[C@H]1Cl [Lindane] |  | neg | neg | neg |  |
| c1cc2ccc3cccc4ccc(c1)c2c34 [Pyrene] |  | pos |  | neg | result in the Ames test [3]: False-negative; result in the test (genotoxicity) [5]: positive; result in the novel systems according to the invention [6]: positive |
| c1ccc2c(c1)ccc1ccccc12 [Phenanthrene] |  | pos | pos |  | AMES (result) ([3]; Ames test, Table 3): neg; result in the Ames test ([3]; text b127): False-negative; result in the test (genotoxicity) [5]: positive; result in the novel systems according to the invention [6]: positive; genotoxicity during bacterial degradation of the PAH [4]: an increase followed by a decrease in genotoxicity |
| Oc1c(Cl)c(Cl)c(Cl)c(Cl)c1Cl [Pentachlorophenole] | pos |  |  |  |  |
| c1ccc2c(c1)ccc1c3ccccc3ccc21 [chrysene] |  | pos | pos | pos | MINIMAL DETECTED CONCENTRATION (MDC) [7]: 0.55 nmol/assay; MINIMAL DETECTED CONCENTRATION (MDC) [8]: 0.55 nmol/assay; MINIMAL DETECTED CONCENTRATION (MDC) [3]: pos; MINIMAL DETECTED CONCENTRATION (MDC) [9]: 5.5 nmol/assay; MINIMAL DETECTED CONCENTRATION (MDC) [10]: 1.095 nmol/assay; MINIMAL DETECTED CONCENTRATION (MDC) [11]: 2.2 nmol/assay; MINIMAL DETECTED CONCENTRATION (MDC) [12]: 5.5 nmol/assay; MINIMAL DETECTED CONCENTRATION (MDC) [13]: 1.095 nmol/assay; MINIMAL DETECTED CONCENTRATION (MDC) [14]: 2.2 nmol/assay; MINIMAL DETECTED CONCENTRATION (MDC) ([2]; SOS chromotest, literature values): 11 nmol/assay |
| CCN(CC)N=O [N-Nitrosodiethylamine] |  | pos | pos | pos |  |
